Experimental findings from ChEMBL document CHEMBL1147599 (Bioorg Med Chem Lett, 2004) are described below.

In this assay the target is T1, Neuropeptide Y receptor type 2 (Homo sapiens, UniProt P49146).
T1 sequence (P49146 whole entry): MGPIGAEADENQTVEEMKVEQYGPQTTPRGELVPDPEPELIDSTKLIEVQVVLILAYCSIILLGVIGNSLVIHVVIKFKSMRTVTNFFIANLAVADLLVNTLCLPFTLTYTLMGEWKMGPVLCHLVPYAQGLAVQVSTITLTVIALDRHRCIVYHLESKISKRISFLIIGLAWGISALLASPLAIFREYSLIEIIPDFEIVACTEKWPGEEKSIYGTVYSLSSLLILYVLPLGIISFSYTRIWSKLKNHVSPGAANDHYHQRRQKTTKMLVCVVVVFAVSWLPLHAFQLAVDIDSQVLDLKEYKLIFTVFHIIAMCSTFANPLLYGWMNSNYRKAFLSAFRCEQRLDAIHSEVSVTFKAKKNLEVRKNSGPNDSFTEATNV
Put plainly: Binding affinity towards the NPY Y2 receptor.
Broadly, the IC50 is the point on the concentration scale where inhibition reaches its midpoint. In turn, `CC(=O)N1CCc2ccc(N(C3CCN(Cc4ccccc4)CC3)S(=O)(=O)/C=C/c3ccccc3)cc21` yielded an IC50 of 30 µM.

`CC(=O)N1CCc2ccc(N(C(=O)/C=C/c3ccccc3)C3CCN(Cc4ccccc4)C3)cc21` (stereo not drawn) displayed an IC50 of 17.5 µM.

The compound `CC(=O)N1CCc2ccc(N(C/C=C/c3ccccc3)C3CCN(Cc4ccccc4)CC3)cc21` came in with an IC50 of 30 µM.
